Measured values as given in patent US20240115554A1, “METHODS FOR TREATING OBSTRUCTIVE HYPERTROPHIC CARDIOMYOPATHY” (Cytokinetics, Incorporated, priority 2022, published 2024).
Entries after “also recorded” stand apart in the source; their conditions may differ.

Tests used:
[1] = test system: patients with symptomatic oHCM; test: Open-label extension: NYHA functional class; type: in vivo, human
Protocol: NYHA Functional Classification is recorded. When available, patients will complete patient-reported outcome (PRO) questionnaires: Kansas City Cardiomyopathy Questionnaire (KCCQ), Seattle Angina Questionnaire-7 (SAQ-7), EuroQol 5-Dimension 5-Level Instrument (EQ-5D-5L), Patient's Global Impression of Change (PGI-C) Scale, Clinical Global Impressions (CGI) Scale, SF-36 Physical Functioning Subscale (SF-36 PFS) as specified in Table 23.

[2] = test system: patients with symptomatic obstructive HCM (oHCM); test: Phase 2 trial: NYHA functional class; type: in vivo, human
Description: Secondary results from the clinical study included data from Cohort 3 (n=13). […] Overall, treatment duration for each patient in the study was 10 weeks with an echocardiogram conducted 2 weeks after the last dose. Efficacy endpoints included resting and provoked LVOT gradients, NYHA class, and NT-proBNP.

[3] = test system: patients with symptomatic oHCM; test: Open-label extension: cardiac biomarkers (NT-proBNP, hs-cTnI); type: in vivo, human; details: Week 48
Protocol: (§1) At Weeks 4, 6, 12, and every 12 weeks thereafter, each patient has an echocardiogram or truncated echocardiogram following administration of their dose (a truncated echocardiogram at weeks 4 and 6; and an echocardiogram at week 12 and every 12 weeks thereafter) to determine whether additional dose titration is needed (see Table 21 and Table 22). Patient reported outcomes, laboratory assessments, measurements of NT-proBNP, hs-cTnI, and other biomarkers are performed at week 12 and every 12 weeks thereafter. Ambulatory cardiac monitoring is performed on weeks 48, 96, 144, 192 and 240 Cardiac magnetic resonance is monitored at weeks 48, 144 and 240. If a patient develops an LVEF <40% after the Week 2 visit, a repeat echocardiogram may be performed to confirm the initial finding (preferably within 24 hours). If the echocardiography findings are confirmed, the patient will undergo a ≥2-day drug holiday.

cardiac myosin = cardiac myosin (Homo sapiens, UniProt P12883); test: Preclinical models: myocardial contractility; details: preclinically in vitro and in vivo
Description: This mechanism of action may be therapeutically effective in conditions characterized by excessive hypercontractility, such as HCM (e.g., obstructive HCM, also referred to as oHCM).

[4] = Phase 1 plasma aficamten pharmacokinetics (SAD, MAD, CYP2D6-PM, food-effect cohorts); type: in vivo, human; details: for CL/F: mean ± SD
Protocol: CYP2D6 poor metabolizer cohort.
CYP2D6 genotypes were determined at screening for all study participants; those identified as CYP2D6-PMs were excluded from the SAD and MAD cohorts but were invited to participate in the CYP2D6-PM cohort. The first individual in the CYP2D6-PM cohort was dosed after the SAD 25-mg cohort (FIG. 2). […] Nine participants were randomized (7:2) with a sentinel dosing group consisting of the first 2 participants treated.
Food-effect cohort. […] Participants were randomized in a 1:1 ratio to 1 of 2 sequences: fasted/fed or fed/fasted.
Pharmacokinetic analyses. For all study groups, blood samples for PK assessment were obtained pre-dose, up to 12 times daily on day 1, and then at regular intervals throughout the study. Blood samples were collected according to the following schedule: SAD Cohorts: Day 1: pre-dose and 0.25, 0.5, 1, 1.5, 2, 2.5, 3, 4, 6, 8, 12, 16, 24, 36, 48, 72, 96, and 216 h post dose. […] CYPD6-PM Cohort: Day 1: pre-dose and 0.25, 0.5, 1, 1.5, 2, 2.5, 3, 4, 6, 8, 12, 16, 24, 36, 48, 72, 96, 216, 312, and 552 h post dose. Food-Effect Cohort: Day 1: pre-dose and 0.25, 0.5, 1, 1.5, 2, 2.5, 3, 4, 6, 8, 12, 16, 24, 36, 48, 72, 96, 144, and 216 h post dose. Standard non-compartmental methods were used to calculate PK parameters using Phoenix® WinNonlin® Version 7.0; actual sample collection times were utilized.
For the MAD cohort, the parameters were AUC24 and Cmax on day 1, plus AUC to the […] (AUCtau) and Cmax on day 14 or 17. The statistical linear relationship between the ln-transformed PK parameters and the ln-transformed dose was verified by including the quadratic (ln Dose)^2 and cubic (ln Dose)^3 effects. […] The dose-proportionality analysis was performed using SAS® PROC MIXED.
An analysis of variance (ANOVA) model was conducted separately for each dose level; day was included as the fixed effect. Helmert contrasts were developed such that each time-point was compared with the mean of the subsequent time-points.

[5] = test system: patients with symptomatic oHCM; test: Open-label extension: echocardiography (LVOT-G, LVEF); type: in vivo, human
Protocol: Patients were up-titrated to Dose 2 if either of the following conditions were met on echocardiography: (1) resting LVOT-G ≥30 mmHg and the biplane LVEF ≥50%; or (2) resting LVOT-G <30 mmHg, post-Valsalva LVOT-G ≥50 mmHg, and the biplane LVEF ≥50%. […] If LVEF was <50%, treatment was discontinued. If LVEF was <40%, treatment is interrupted.
Ambulatory cardiac monitoring is performed on weeks 48, 96, 144, 192 and 240. Cardiac magnetic resonance is monitored at weeks 48, 144 and 240. (See FIG. 26).
At Week 2, each patient has a truncated echocardiogram following administration of their dose. Patients are up-titrated to Dose 2 if post-Valsalva LVOT-G ≥30 mmHg, and the biplane LVEF ≥55%. […] If LVEF is <50%, treatment is discontinued.
as §1
Echocardiographic parameters to be measured at least include the left ventricular parameters (resting left ventricular outflow tract pressure gradient (LVOT-G), post-Valsalva LVOT-G, LVEF, LVFS, left ventricular strain, left ventricular end diastolic volume (LVEDV), left ventricular end systolic volume (LVESV), LV Stroke Volume), septal and free wall thickness, E/e′, E/A, LA volume.

[6] = by week 48, Examples 3a and 3b interim
[7] = pooled aficamten Cohorts 1 and 2

Sequence of cardiac myosin (P12883 whole entry): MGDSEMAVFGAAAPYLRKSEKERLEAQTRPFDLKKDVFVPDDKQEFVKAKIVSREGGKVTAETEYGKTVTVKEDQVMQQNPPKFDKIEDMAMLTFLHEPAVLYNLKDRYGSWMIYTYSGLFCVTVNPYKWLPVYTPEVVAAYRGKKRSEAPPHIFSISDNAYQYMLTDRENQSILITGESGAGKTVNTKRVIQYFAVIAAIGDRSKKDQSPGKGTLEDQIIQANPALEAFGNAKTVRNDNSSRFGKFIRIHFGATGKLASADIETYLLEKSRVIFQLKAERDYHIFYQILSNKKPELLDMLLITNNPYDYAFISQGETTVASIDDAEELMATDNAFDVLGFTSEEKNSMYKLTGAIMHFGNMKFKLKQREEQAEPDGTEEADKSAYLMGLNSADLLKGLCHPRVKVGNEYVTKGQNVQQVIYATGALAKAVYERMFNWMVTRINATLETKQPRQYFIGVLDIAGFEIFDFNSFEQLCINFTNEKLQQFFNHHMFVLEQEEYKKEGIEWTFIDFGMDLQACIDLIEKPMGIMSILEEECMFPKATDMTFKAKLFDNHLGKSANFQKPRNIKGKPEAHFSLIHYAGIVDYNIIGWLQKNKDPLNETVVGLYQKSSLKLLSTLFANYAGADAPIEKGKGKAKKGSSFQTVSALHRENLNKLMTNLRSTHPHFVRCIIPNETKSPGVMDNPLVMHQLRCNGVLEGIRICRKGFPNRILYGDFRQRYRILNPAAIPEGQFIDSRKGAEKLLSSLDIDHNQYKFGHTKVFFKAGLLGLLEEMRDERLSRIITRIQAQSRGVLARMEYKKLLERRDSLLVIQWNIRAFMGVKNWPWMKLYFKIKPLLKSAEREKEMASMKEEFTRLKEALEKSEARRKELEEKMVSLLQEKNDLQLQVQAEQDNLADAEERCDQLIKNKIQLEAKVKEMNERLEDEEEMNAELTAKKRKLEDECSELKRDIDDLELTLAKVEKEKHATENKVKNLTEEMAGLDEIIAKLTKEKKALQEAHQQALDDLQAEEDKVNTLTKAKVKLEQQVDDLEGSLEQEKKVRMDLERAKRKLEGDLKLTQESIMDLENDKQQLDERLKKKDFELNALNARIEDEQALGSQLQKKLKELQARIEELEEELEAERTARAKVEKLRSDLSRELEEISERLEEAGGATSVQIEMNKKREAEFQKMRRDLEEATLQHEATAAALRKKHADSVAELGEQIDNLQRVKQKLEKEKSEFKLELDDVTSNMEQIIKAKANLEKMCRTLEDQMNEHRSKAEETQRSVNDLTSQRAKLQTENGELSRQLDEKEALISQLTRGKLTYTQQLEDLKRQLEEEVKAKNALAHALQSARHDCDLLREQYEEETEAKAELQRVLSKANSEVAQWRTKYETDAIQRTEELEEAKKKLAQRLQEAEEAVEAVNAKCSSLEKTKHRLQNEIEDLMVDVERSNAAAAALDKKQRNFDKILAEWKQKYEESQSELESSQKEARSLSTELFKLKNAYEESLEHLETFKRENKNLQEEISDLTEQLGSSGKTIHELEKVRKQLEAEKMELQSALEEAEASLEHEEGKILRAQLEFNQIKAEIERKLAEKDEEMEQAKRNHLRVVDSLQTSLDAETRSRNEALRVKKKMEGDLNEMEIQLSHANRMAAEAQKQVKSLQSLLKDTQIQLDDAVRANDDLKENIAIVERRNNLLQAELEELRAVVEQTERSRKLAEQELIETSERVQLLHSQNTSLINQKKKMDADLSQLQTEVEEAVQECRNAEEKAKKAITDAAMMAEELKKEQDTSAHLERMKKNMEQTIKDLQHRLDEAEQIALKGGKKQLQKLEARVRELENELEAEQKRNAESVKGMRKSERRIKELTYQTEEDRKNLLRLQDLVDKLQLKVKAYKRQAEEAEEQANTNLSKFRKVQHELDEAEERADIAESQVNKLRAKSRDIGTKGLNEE
Sequence of cardiac myosin (P08590 whole entry partner): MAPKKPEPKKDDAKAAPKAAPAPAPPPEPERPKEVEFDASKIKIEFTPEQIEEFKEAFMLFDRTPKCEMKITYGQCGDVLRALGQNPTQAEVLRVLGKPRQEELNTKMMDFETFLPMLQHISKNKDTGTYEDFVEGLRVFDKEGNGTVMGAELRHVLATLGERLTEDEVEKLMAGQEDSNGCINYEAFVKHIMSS
Sequence of cardiac myosin (P10916 whole entry partner): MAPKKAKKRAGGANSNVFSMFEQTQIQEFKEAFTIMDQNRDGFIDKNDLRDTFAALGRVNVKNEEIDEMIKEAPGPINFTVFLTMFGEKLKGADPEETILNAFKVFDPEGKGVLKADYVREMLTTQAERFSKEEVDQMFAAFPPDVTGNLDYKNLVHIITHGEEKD

## CCc1nc(-c2ccc3c(c2)CC[C@H]3NC(=O)c2cnn(C)c2)no1 [aficamten, (R)—N-(5-(5-ethyl-1,2,4-oxadiazol-3-yl)-2,3-dihydro-1H-inden-1-yl)-1-methyl-1H-pyrazole-4-carboxamide]
[1]; Example 3a, preliminary
  patients with worsening in NYHA class from baseline: No patients
[1]; Example 3a, up to 6 months
  patients with NYHA class improvement of one or more classes: about 80%
[1]; [6]
  patients with NYHA FC worsening: none
  patients with ≥1 NYHA FC improvement: 88%
[1]; week 12 (baseline 47%), Example 3a
  patients in NYHA class II: 52%
[1]; week 12 (baseline 53%), Example 3a
  patients in NYHA class III: 7%
[1]; week 12, Example 3a
  patients in NYHA class I: 41%
[1]; week 24, Example 3a
  patients in NYHA class I: 56%
  patients in NYHA class II: 39%
  patients in NYHA class III: 6%
[2]; Cohort 2
  patients with improvement in NYHA class by one or more classes: 64%
[2]; Cohort 3
  NYHA improvement in baseline class III patients: all baseline NYHA class III patients improved by ≥1 class
[2]; Cohort 3 (Eleven patients)
  patients with ≥1 NYHA class improvement: 85%
[2]; Cohorts 1 and 2
  patients converted from class III to class II or I: 7 patients
[2]; [7]
  patients who improved from NYHA class III to I: one
  patients who improved from NYHA class III to II: 6 patients
[2]; pooled aficamten Cohorts 1 and 2 (15 of 28)
  patients with change in NYHA class of one or more classes: 53%
[3]
  NT pro-BNP reduction from baseline: 70%
Cardiac myosin
  effect on left ventricular contractility: reduced measures of left ventricular contractility
[4]; 10 mg single dose
  impact of food and CYP2D6-PM phenotype on pharmacokinetics: Neither food nor CYP2D6-PM phenotype had a clinically meaningful impact on pharmacokinetics
[4]; 5-mg and 7.5-mg doses once daily
  steady state achieved by the end of day: 12 days
[4]; 10-mg dose once daily
  steady state achieved by the end of day: 10 days
[4]; CYP2D6 Poor Metabolizers, 10 mg single dose
  CL/F: 3.6 ± 1.4 L/h
[4]; SAD cohorts
  maximum time to maximum observed concentration across all participants: 4.0 h
[4]; food-effect cohort, 10 mg
  increase of Cmax when taken with food: approximately 30%
[4]; food-effect cohort, 10 mg, Fasted (n = 4)
  CL/F: 2.8 ± 0.6 L/h
[4]; food-effect cohort, 10 mg, Fed (n = 7)
  CL/F: 3.1 ± 0.9 L/h
[4]; once-daily dosing
  time within which steady state is achieved: ≤ 2 weeks
[4]; single oral dose 3 mg
  CL/F: 4.2 ± 3.1 L/h
[4]; single oral dose 10 mg
  CL/F: 3.0 ± 0.7 L/h
[4]; single oral dose 25 mg
  CL/F: 3.6 ± 0.5 L/h
[4]; single oral dose 40 mg
  CL/F: 3.4 ± 0.6 L/h
[4]; single oral dose 50 mg
  CL/F: 3.8 ± 1.1 L/h
[4]; single oral doses 1 mg to 50 mg
  dose proportionality of plasma concentrations / exposure: increased in a dose-proportional manner; also recorded: linear kinetics
[5]; Weeks 2-24, site reads, Example 3a
  reduction in LVOT gradients over time: significant and sustained reductions in LVOT gradients
[5]; baseline to week 48
  Δ LVEF: −5±3%
  Δ Valsalva LVOT-G mean: −47 mmHg
  ΔResting LVOT-G mean: −32 mmHg
[5]; through Week 24, Example 3a
  reductions in LVEF over time: minimal and stable reductions in LVEF
